Measurements from patent US10183007B2, “Method of producing proanthocyanidin oligomer” (Nagasaki University, priority 2005, dated 2019).

Experiments:
[1] = DPPH radical-scavenging activity assay; assay type: biochemical; conditions: test concentration not given
Method: With respect to each sample, 1,1-diphenyl-2-picrylhydrazyl (DPPH) radical-scavenging activity was evaluated as follows. In a 96-hole microplate, 100 μL of DPPH solution (60 μM ethanol solution) was placed. Added thereto was 100 μL of ethanol solution of test sample or 100 μL of ethanol as control, and the mixture was gently mixed together and left standing at room temperature for 30 minutes. Then, absorbance at 520 nm was measured. The DPPH radical-scavenging activity was calculated by the following formula and 50% effective concentration (EC50) was calculated from The DPPH radical-scavenging activity value of test sample gradually diluted and its concentration. DPPH radical-scavenging activity(%)=[…] [Formula 1]
As substance to be compared with Invention Substance B, epicatechin and phloroglucinol (PL) were used. As substance to be compared with Invention Substances C to E, grape seed polyphenol polymer (GP) was used.

[2] = TEAC (Trolox Equivalent Antioxidant Capacity) method; assay type: biochemical
Method: TEAC (Trolox Equivalent Antioxidant Capacity) method is a method of relatively evaluating antioxidative strength by converting antioxidative activity of a compound into antioxidative activity of Trolox which is a α-tocopherol derivative and the method is widely employed as an index of antioxidative activity.
To 36 μL of 70 μM metmyoglobin solution, 300 μL of ABTS solution and […] of 5 mM phosphate buffered saline were added. Subsequently, sample solution or 1.25 mM Yrolox solution was added thereto and gently mixed together for 5 minutes at 0° C. After 167 μL of 450 μM hydrogen peroxide solution was added thereto and mixed for 10 seconds, reaction was allowed to proceed for 5 minutes at room temperature. Absorbance at 734 nm was measured and the absorbance ratio between the sample and the Trolox solution was calculated to serve as TEAC value of the sample against […] Trolox.
As substance to be compared with Invention Substances C to E, grape seed polyphenol polymer was used.

[3] = FIG. 8, comparison for Invention Substance B
[4] = FIG. 11, TEAC value against Trolox

Q: For `Oc1ccc(/C=C/c2cc(O)c([C@H]3c4c(O)cc(O)cc4O[C@H](c4ccc(O)c(O)c4)[C@@H]3O)c(O)c2)cc1` [Invention Substance A, 4b-(4-resveratroyl)-(−)-epicatechin], which DPPH activity ([1]; FIG. 7, comparison for Invention Substance A) is on record?
A: The DPPH activity was 76.1%.

Q: And the TEAC activity ([2]; FIG. 10, TEAC value against 1.00 mM Trolox)?
A: Its TEAC activity is 1.33 mM.

Q: What does the source list for `Oc1cc(O)c([C@H]2c3c(O)cc(O)cc3O[C@H](c3ccc(O)c(O)c3)[C@@H]2O)c(O)c1` [Invention Substance B, 4-(2-phloroglucinol)-(−)-epicatechin]?
A: DPPH activity [1, 3]: significantly high scavenging activity as compared with both of the substances; TEAC activity [2, 4]: 1.44 mM

Q: With `Oc1cc(O)cc(O)c1` [phloroglucinol, reference compound] as the molecule, how does the DPPH activity [1, 3] read?
A: The DPPH activity was “little such activity”.

Q: What about the TEAC activity [2, 4] of the same molecule?
A: The TEAC activity was 0.52 mM.
